We go through twelve compounds from US9321773B2, “Compounds” (Respivert Ltd, priority 2009, dated 2016).

The structures appear in SMILES notation. Where two headings read alike, the source gives them in different places.

Data set [1] has as its system H2O2 induced pAkt in D-U937 cells. Briefly: PI3Kδ Cell Based Assay (H2O2 induced pAkt). The note with it: Homo sapiens. The procedure, abridged: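 Read-out is the pAkt/total Akt signal ratio, measured with anti-pAkt and anti-pan-Akt antibodies after H2O2 stimulation. Cells were U937 monocytes given PMA (100 ng/mL) for 48 to 72 hr. IC50 values fitted from compound serial dilutions.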

For the next data set, the target named is recombinant PI3 kinase δ (Homo sapiens (Human), UniProt O00329). Briefly: Enzyme Inhibition Assay (HTRF PI3K enzyme assay, TR-FRET). Type of data set: biochemical. The essentials:
(§1)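 TR-FRET readout after 15-18 hr at RT with biotinylated PIP3, GST-tagged GRP1 PH domain and europium/APC fluorophores; product PIP3 displaces the tracer and lowers the signal. Beforehand, compound and PIP2 were reacted for 2 hr at RT with human recombinant PI3Kα, δ or γ.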

A further data set has as its target recombinant PI3 kinase γ (Homo sapiens (Human), UniProt P48736). Described as above. Type of data set: biochemical. The procedure, abridged: as §1
In a further data set the target is recombinant PI3 kinase α (Homo sapiens (Human), UniProt P42336). The description is as above. Type of data set: biochemical. The essentials:
as §1

The subject of data set [2] is PMA-differentiated U937 cells. Nature of the data set: MTT Assay (cell viability). Type of data set: cell-based, Human. The conditions noted are these: percentage loss of cell viability; for Cell Viability MTT Assay in D-U937 cells at 4 hr: 4 hr in 5% FCS; for Cell Viability MTT Assay in D-U937 cells at 24 hr: 24 hr in 10% FCS. The procedure, abridged:
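Differentiated U937 cells treated with compound for 4 hr (5% FCS) or 24 hr (10% FCS), then given MTT for 1 hr; formazan dissolved in DMSO and absorbance read at 550 nm. Viability loss expressed as % versus 0.5% DMSO vehicle.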

The nature of data set [3]: Stereochemical analysis by chiral stationary phase HPLC (atropisomerism). Type of data set: physicochemical. The conditions noted are these: for atropisomerism by chiral stationary phase HPLC: chiral stationary phase HPLC (16 different conditions for the examples). How it is done: Each of these mobile phase are compatible with the column packings referred to above, providing sixteen different solvent and stationary phase permutations. Modifiers such as triethylamine (0.1%), formic acid (0.1%) may be added to improve the resolution
Semi-preparative Chiral Stationary Phase LC-UV was performed on a Gilson preparative modular system using a Daicel Chiralpak AD semi-prep column ([…], 20×250 mm) and a flow rate of 18 mL/min eluting with an isocratic method over 20 min using […] heptane:IPA and 0.1% triethylamine employing an injection volume of 1.0 mL.

[4] abbreviates: dU937, read-out: Cellular Activity IC50 values (H2O2 induced pAkt D-U937 Cells).
Where [5] appears, read: activity range, read-out: PI3 Kinase Inhibition IC50 values at stated Isozyme δ.
Where [6] appears, read: activity range, read-out: PI3 Kinase Inhibition IC50 values at stated Isozyme γ.
[7] abbreviates: activity range, read-out: PI3 Kinase Inhibition IC50 values at stated Isozyme α.
[8] abbreviates: dU937, activity range, D-U937 cells, read-out: Cellular Activity IC50 values (H2O2 induced pAkt D-U937 Cells).
[9] abbreviates: dU937, read-out: Cellular Activity IC50 values (H2O2 induced pAkt (nM) D-U937 Cells).
Where [10] appears, read: read-out: PI3 Kinase Inhibition IC50 values at stated Isozyme (nM) δ.
Setting [11] is: read-out: PI3 Kinase Inhibition IC50 values at stated Isozyme (nM) γ.
Where [12] appears, read: read-out: PI3 Kinase Inhibition IC50 values at stated Isozyme (nM) α.

For orientation: IC50 means the concentration that gives 50% inhibition.

Sequence of recombinant PI3 kinase α (P42336 whole entry): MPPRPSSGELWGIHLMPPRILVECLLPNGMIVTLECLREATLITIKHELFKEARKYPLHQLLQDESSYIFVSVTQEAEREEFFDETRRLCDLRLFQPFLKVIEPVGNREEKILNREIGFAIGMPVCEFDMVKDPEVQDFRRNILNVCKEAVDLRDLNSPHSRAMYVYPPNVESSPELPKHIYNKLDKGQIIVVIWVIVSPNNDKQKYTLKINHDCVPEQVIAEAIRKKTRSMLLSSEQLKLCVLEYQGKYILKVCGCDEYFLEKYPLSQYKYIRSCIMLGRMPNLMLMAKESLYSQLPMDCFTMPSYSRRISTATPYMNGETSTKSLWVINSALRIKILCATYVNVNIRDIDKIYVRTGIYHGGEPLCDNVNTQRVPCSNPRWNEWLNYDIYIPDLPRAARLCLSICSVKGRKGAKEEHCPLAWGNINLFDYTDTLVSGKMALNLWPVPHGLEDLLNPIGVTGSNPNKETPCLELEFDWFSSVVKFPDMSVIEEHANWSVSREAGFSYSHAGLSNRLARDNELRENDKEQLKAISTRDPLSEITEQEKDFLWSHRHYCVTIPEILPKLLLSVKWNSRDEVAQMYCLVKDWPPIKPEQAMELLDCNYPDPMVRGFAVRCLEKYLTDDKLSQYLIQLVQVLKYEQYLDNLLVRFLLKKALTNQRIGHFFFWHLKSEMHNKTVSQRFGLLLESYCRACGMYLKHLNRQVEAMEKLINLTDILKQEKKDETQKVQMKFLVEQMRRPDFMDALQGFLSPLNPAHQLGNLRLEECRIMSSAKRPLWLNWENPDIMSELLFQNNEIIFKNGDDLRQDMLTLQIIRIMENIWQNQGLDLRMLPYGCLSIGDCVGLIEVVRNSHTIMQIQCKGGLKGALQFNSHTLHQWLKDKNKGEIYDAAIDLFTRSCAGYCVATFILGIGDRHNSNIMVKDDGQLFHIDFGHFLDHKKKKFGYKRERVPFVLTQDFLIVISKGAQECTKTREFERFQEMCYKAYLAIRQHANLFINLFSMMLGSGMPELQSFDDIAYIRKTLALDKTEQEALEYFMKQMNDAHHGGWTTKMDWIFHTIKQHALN
Sequence of recombinant PI3 kinase α (P27986 whole entry partner): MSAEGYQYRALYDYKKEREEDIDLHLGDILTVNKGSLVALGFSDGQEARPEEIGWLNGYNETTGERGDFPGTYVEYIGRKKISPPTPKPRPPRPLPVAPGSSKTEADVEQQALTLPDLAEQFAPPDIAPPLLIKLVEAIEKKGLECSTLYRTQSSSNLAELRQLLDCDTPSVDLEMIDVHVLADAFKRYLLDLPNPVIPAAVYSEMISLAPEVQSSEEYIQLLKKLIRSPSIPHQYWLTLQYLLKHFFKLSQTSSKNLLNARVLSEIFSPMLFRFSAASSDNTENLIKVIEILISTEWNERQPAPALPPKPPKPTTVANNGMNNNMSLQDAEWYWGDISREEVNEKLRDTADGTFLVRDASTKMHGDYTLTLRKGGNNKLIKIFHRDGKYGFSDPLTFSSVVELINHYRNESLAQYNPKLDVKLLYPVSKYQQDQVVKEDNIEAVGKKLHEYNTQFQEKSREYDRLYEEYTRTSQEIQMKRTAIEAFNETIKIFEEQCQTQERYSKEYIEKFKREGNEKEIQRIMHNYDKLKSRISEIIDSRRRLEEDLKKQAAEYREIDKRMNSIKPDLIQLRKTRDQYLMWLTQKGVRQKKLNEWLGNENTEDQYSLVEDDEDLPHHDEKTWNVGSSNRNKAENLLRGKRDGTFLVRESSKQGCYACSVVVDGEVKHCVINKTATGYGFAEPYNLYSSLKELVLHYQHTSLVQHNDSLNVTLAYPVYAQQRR
Sequence of recombinant PI3 kinase δ (O00329 whole entry, the tested form may be a part): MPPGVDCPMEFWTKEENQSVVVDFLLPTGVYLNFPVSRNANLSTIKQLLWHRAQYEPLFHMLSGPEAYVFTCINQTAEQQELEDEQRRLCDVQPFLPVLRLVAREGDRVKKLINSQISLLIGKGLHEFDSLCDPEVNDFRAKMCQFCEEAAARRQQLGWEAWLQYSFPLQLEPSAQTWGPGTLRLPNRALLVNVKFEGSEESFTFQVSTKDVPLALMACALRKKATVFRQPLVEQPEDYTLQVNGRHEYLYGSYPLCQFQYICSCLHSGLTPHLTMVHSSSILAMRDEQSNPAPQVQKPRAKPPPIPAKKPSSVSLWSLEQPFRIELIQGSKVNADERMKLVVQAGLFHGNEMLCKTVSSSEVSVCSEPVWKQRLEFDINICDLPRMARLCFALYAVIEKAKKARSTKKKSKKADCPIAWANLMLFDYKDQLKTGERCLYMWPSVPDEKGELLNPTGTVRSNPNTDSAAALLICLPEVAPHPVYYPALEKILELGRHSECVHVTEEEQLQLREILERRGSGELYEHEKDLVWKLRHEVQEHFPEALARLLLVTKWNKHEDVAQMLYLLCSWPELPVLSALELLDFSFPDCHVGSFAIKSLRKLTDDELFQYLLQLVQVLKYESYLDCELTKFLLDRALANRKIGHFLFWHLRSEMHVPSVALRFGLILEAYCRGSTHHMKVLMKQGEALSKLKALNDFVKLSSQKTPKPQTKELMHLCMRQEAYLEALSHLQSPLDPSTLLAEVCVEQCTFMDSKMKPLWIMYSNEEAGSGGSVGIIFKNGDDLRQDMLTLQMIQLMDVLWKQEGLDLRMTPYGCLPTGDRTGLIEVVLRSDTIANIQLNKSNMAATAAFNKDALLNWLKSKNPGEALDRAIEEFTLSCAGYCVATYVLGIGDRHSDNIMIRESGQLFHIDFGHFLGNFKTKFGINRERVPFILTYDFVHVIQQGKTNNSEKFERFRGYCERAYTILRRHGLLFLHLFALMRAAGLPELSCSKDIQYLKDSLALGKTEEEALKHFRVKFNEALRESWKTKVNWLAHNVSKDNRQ
Sequence of recombinant PI3 kinase δ (P27986 whole entry partner, the tested form may be a part): as the sequence (P27986 whole entry partner) above
Sequence of recombinant PI3 kinase γ (P48736 whole entry): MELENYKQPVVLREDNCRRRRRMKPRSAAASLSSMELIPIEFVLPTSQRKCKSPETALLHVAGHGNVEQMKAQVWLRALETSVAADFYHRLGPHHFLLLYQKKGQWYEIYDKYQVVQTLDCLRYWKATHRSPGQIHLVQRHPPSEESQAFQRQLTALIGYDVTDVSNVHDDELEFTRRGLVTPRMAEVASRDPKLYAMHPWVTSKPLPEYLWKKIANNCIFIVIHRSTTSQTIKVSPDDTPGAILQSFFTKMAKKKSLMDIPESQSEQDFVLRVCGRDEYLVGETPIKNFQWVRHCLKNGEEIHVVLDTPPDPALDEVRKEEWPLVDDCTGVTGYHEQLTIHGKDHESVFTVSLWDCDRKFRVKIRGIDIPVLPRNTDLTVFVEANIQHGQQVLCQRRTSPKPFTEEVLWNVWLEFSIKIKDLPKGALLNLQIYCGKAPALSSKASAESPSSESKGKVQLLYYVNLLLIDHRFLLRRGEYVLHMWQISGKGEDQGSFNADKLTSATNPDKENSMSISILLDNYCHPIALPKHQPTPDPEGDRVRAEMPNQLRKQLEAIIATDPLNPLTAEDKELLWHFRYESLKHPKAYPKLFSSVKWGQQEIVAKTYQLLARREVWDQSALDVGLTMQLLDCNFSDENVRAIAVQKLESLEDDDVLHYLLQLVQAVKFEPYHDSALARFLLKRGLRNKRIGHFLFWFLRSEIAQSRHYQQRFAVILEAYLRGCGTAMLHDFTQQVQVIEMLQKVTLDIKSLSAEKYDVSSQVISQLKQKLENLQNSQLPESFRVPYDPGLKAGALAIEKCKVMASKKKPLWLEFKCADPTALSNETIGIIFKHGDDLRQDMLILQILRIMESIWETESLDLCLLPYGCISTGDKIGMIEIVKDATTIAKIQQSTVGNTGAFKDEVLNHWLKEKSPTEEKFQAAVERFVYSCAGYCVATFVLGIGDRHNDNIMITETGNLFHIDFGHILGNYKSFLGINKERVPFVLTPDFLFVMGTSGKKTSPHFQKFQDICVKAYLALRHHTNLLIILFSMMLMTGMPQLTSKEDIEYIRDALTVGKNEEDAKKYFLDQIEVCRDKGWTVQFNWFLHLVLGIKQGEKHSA

Regarding `C#Cc1cccc2nc(Cn3nc(-c4ccc(O)cc4)c4c(N)ncnc43)n(Cc3ccccc3Cl)c(=O)c12` [Example 9, 2-((4-Amino-3-(4-hydroxyphenyl)-1H-pyrazolo[3,4-d]pyrimidin-1-yl)methyl)-3-(2-chlorobenzyl)-5-ethynyl quinazolin-4(3H)-one], the IC50 is below 10 nM in data set [1] (setting [4]), below 50 nM on recombinant PI3 kinase δ (setting [5]), 50 to 1000 nM at recombinant PI3 kinase γ (setting [6]) and 50 to 1000 nM on recombinant PI3 kinase α (setting [7]). Further, the “Cell Viability MTT Assay in D-U937 cells at 4 hr” value in data set [2] was “− (− <30%)”. Moreover, in data set [2], the “Cell Viability MTT Assay in D-U937 cells at 24 hr” value is recorded as “− (− <30%)”. Further, the “atropisomerism by chiral stationary phase HPLC” value (from here on “atropisomerism”) in data set [3] is reported as “no evidence for atropisomerism was observed”.
In the case of `C#Cc1cccc2nc(Cn3nc(-c4cccc(O)c4)c4c(N)ncnc43)n(Cc3cccc(Cl)c3)c(=O)c12` [Example 10, 2-((4-Amino-3-(3-hydroxyphenyl)-1H-pyrazolo[3,4-d]pyrimidin-1-yl)methyl)-3-(3-chlorobenzyl)-5-ethynyl quinazolin-4(3H)-one], the IC50 was below 10 nM in data set [1] (setting [4]), below 50 nM at recombinant PI3 kinase δ (setting [5]), 50 to 1000 nM at recombinant PI3 kinase γ (setting [6]) and 50 to 1000 nM on recombinant PI3 kinase α (setting [7]). The “Cell Viability MTT Assay in D-U937 cells at 4 hr” value in data set [2] is “− (− <30%)”. Further, the “Cell Viability MTT Assay in D-U937 cells at 24 hr” value in data set [2] was “− (− <30%)”. In data set [3], the “atropisomerism” value was “no evidence for atropisomerism was observed”.
`C#Cc1cccc2nc(Cn3nc(-c4ccc(O)cc4)c4c(N)ncnc43)n(Cc3cccc(Cl)c3)c(=O)c12` [Example 11, 2-((4-Amino-3-(4-hydroxyphenyl)-1H-pyrazolo[3,4-d]pyrimidin-1-yl)methyl)-3-(3-chlorobenzyl)-5-ethynyl quinazolin-4(3H)-one]: the IC50 in data set [1] (setting [4]) is below 10 nM; at recombinant PI3 kinase δ (setting [5]), below 50 nM; at recombinant PI3 kinase γ (setting [6]), 50 to 1000 nM; at recombinant PI3 kinase α (setting [7]), 50 to 1000 nM. In data set [2], the “Cell Viability MTT Assay in D-U937 cells at 4 hr” value was “− (− <30%)”. Also, the “Cell Viability MTT Assay in D-U937 cells at 24 hr” value in data set [2] is on record as “− (− <30%)”. Further, the “atropisomerism” value in data set [3] is “no evidence for atropisomerism was observed”.
For the compound `CN(C)C1CCN(C(=O)CCCC#Cc2cccc3nc(Cn4nc(-c5ccc(O)cc5)c5c(N)ncnc54)n(Cc4ccccc4Cl)c(=O)c23)CC1` [Example 81, 2-((4-Amino-3-(4-hydroxyphenyl)-1H-pyrazolo[3,4-d]pyrimidin-1-yl)methyl)-3-(2-chlorobenzyl)-5-(6-(4-(dimethylamino)piperidin-1-yl)-6-oxohex-1-ynyl) quinazolin-4(3H)-one], the IC50 in data set [1] (setting [8]) is below 10 nM; on recombinant PI3 kinase δ (setting [5]), below 50 nM; at recombinant PI3 kinase γ (setting [6]), 50 to 1000 nM; on recombinant PI3 kinase α (setting [7]) it was 50 to 1000 nM. For the same compound, the “Cell Viability MTT Assay in D-U937 cells at 4 hr” value in data set [2] is recorded as “− (− <30%)”. The “Cell Viability MTT Assay in D-U937 cells at 24 hr” value in data set [2] is “− (− <30%)”.
On to `COCCN(CCOC)C(=O)CCCC#Cc1cccc2nc(Cn3nc(-c4ccc(O)cc4)c4c(N)ncnc43)n(Cc3ccccc3Cl)c(=O)c12` [Example 82, 6-(2-((4-Amino-3-(4-hydroxyphenyl)-1H-pyrazolo[3,4-d]pyrimidin-1-yl)methyl)-3-(2-chlorobenzyl)-4-oxo-3,4-dihydroquinazolin-5-yl)-N,N-bis(2-methoxyethyl)hex-5-ynamide], for which the half-maximal inhibitory concentration (IC50) is below 10 nM in data set [1] (setting [8]), below 50 nM at recombinant PI3 kinase δ (setting [5]), below 50 nM at recombinant PI3 kinase γ (setting [6]) and 50 to 1000 nM at recombinant PI3 kinase α (setting [7]). For the same compound, in data set [2], the “Cell Viability MTT Assay in D-U937 cells at 4 hr” value was “− (− <30%)”. For the same compound, the “Cell Viability MTT Assay in D-U937 cells at 24 hr” value in data set [2] is given as “− (− <30%)”.
For `CC(C)NC(=O)CCCC#Cc1cccc2nc(Cn3nc(-c4ccc(O)cc4)c4c(N)ncnc43)n(Cc3ccccc3Cl)c(=O)c12` [Example 86, 6-(2-((4-Amino-3-(4-hydroxyphenyl)-1H-pyrazolo[3,4-d]pyrimidin-1-yl)methyl)-3-(2-chlorobenzyl)-4-oxo-3,4-dihydroquinazolin-5-yl)-N-isopropylhex-5-ynamide], the IC50 in data set [1] (setting [8]) is below 10 nM; in data set [1] (setting [9]) it was 0.41 nM; at recombinant PI3 kinase δ (setting [5]) it was below 50 nM; at recombinant PI3 kinase δ (setting [10]), 36 nM; on recombinant PI3 kinase γ (setting [6]) it was below 50 nM; on recombinant PI3 kinase γ (setting [11]), 22 nM. For the same compound, the values for the half-inhibitory concentration (IC50) on recombinant PI3 kinase α (setting [7]) and on recombinant PI3 kinase α (setting [12]) were below 50 nM and 27 nM, respectively. Moreover, the “Cell Viability MTT Assay in D-U937 cells at 4 hr” value in data set [2] is “− (− <30%)”. In addition, the “Cell Viability MTT Assay in D-U937 cells at 24 hr” value in data set [2] is “− (− <30%)”.
Consider `CN(C)C(=O)CCCC#Cc1cccc2nc(Cn3nc(-c4ccc(O)cc4)c4c(N)ncnc43)n(Cc3ccccc3Cl)c(=O)c12` [Example 88, 6-(2-((4-Amino-3-(4-hydroxyphenyl)-1H-pyrazolo[3,4-d]pyrimidin-1-yl)methyl)-3-(2-chlorobenzyl)-4-oxo-3,4-dihydroquinazolin-5-yl)-N,N-dimethylhex-5-ynamide], for which the 50% inhibitory concentration (IC50) in data set [1] (setting [8]) was below 10 nM; at recombinant PI3 kinase δ (setting [5]) it was below 50 nM; at recombinant PI3 kinase γ (setting [6]), below 50 nM; at recombinant PI3 kinase α (setting [7]) it was 50 to 1000 nM. Also, the “Cell Viability MTT Assay in D-U937 cells at 4 hr” value in data set [2] was “− (− <30%)”. For the same compound, the “Cell Viability MTT Assay in D-U937 cells at 24 hr” value in data set [2] is recorded as “− (− <30%)”.
Regarding `Nc1ncnc2c1c(-c1ccc(O)cc1)nn2Cc1nc2cccc(C#CCCCC(=O)N3CCCC3)c2c(=O)n1Cc1ccccc1Cl` [Example 89, 2-((4-Amino-3-(4-hydroxyphenyl)-1H-pyrazolo[3,4-d]pyrimidin-1-yl)methyl)-3-(2-chlorobenzyl)-5-(6-oxo-6-(pyrrolidin-1-yl)hex-1-yn-1-yl)quinazolin-4(3H)-one], the IC50 was below 10 nM in data set [1] (setting [8]); 0.2 nM in data set [1] (setting [9]); below 50 nM on recombinant PI3 kinase δ (setting [5]); 3 nM on recombinant PI3 kinase δ (setting [10]); below 50 nM at recombinant PI3 kinase γ (setting [6]); 47 nM on recombinant PI3 kinase γ (setting [11]). Moreover, the IC50 at recombinant PI3 kinase α (setting [7]) was above 1000 nM; at recombinant PI3 kinase α (setting [12]), 1490 nM. In data set [2], the “Cell Viability MTT Assay in D-U937 cells at 4 hr” value is listed as “− (− <30%)”. In addition, the “Cell Viability MTT Assay in D-U937 cells at 24 hr” value in data set [2] is recorded as “− (− <30%)”.
Regarding `CN(C)C1CCN(C(=O)CCCC#Cc2cccc3nc(Cn4nc(-c5ccc(O)cc5)c5c(N)ncnc54)n(Cc4ccccc4Cl)c(=O)c23)C1` (stereo not shown) [Example 91, 2-((4-Amino-3-(4-hydroxyphenyl)-1H-pyrazolo[3,4-d]pyrimidin-1-yl)methyl)-3-(2-chlorobenzyl)-5-(6-(3-(dimethylamino)pyrrolidin-1-yl)-6-oxohex-1-ynyl) quinazolin-4(3H)-one], the IC50 was below 10 nM in data set [1] (setting [8]), below 50 nM on recombinant PI3 kinase δ (setting [5]), below 50 nM on recombinant PI3 kinase γ (setting [6]) and 50 to 1000 nM at recombinant PI3 kinase α (setting [7]). The “Cell Viability MTT Assay in D-U937 cells at 4 hr” value in data set [2] is listed as “− (− <30%)”. In data set [2], the “Cell Viability MTT Assay in D-U937 cells at 24 hr” value is “− (− <30%)”.
As for `CN1CCCN(C(=O)CCCC#Cc2cccc3nc(Cn4nc(-c5ccc(O)cc5)c5c(N)ncnc54)n(Cc4ccccc4Cl)c(=O)c23)CC1` [Example 93, 2-((4-Amino-3-(4-hydroxyphenyl)-1H-pyrazolo[3,4-d]pyrimidin-1-yl)methyl)-3-(2-chlorobenzyl)-5-(6-(4-methyl-1,4-diazepan-1-yl)-6-oxohex-1-ynyl)quinazolin-4(3H)-one], the IC50 was below 10 nM in data set [1] (setting [8]), below 50 nM on recombinant PI3 kinase δ (setting [5]), below 50 nM on recombinant PI3 kinase γ (setting [6]) and 50 to 1000 nM at recombinant PI3 kinase α (setting [7]). For the same compound, in data set [2], the “Cell Viability MTT Assay in D-U937 cells at 4 hr” value is given as “− (− <30%)”. Further, the “Cell Viability MTT Assay in D-U937 cells at 24 hr” value in data set [2] is given as “− (− <30%)”.
Consider `COc1cc(-c2nn(Cc3nc4cccc(C#CCCCC(=O)N5CCOCC5)c4c(=O)n3Cc3ccccc3Cl)c3ncnc(N)c23)ccc1O` [Example 95, 2-((4-Amino-3-(4-hydroxy-3-methoxyphenyl)-1H-pyrazolo[3,4-d]pyrimidin-1-yl)methyl)-3-(2-chlorobenzyl)-5-(6-morpholino-6-oxohex-1-ynyl)quinazolin-4(3H)-one], for which the IC50 is below 10 nM in data set [1] (setting [8]), below 50 nM at recombinant PI3 kinase δ (setting [5]), below 50 nM on recombinant PI3 kinase γ (setting [6]) and 50 to 1000 nM at recombinant PI3 kinase α (setting [7]). The “Cell Viability MTT Assay in D-U937 cells at 4 hr” value in data set [2] was “− (− <30%)”. Moreover, the “Cell Viability MTT Assay in D-U937 cells at 24 hr” value in data set [2] is given as “− (− <30%)”.
As for `Cc1ccccc1-n1c(Cn2nc(-c3cccc(O)c3)c3c(N)ncnc32)nc2cccc(C)c2c1=O` [PIK294, reference compound], in data set [3] (ambient and elevated temperatures, over several days), the “interconversion of separated atropisomers” value was “no detectable signs of interconversion”. Moreover, the “atropisomerism” value in data set [3] was 1:1 mixture of enantiomeric atropisomers.
